Patent US4772633A, “6-pyridyl- and 6-phenyl-3-phenyl-1-hexenes and -1-hexynes, composition containing them, and insecticidal and acaricidal method of using them” (Sumitomo Chemical Company, Limited, priority 1986, dated 1988)

Columns and labels:
[1] = test system: carmine spider mite (Tetranychus cinnabarinus); test: Test Example 8: degree of damage of kidney bean plant by carmine spider mite; format: in vivo; design: key: -: No damage is observed.; +: Slight damage is observed.; ++: The same damage as in the untreated plot is observed; conditions: 500 ppm, sprayed 15 ml/pot plus 2 ml to soil; after 8 days; 25° C.
Description: The female adults of carmine spider mite (Tetranychus cinnabarinus) were put at a rate of 10 adults/leaf on the leaves of potted kidney bean (at the primordial leaf stage) which had elapsed 7 days after sowing, and placed in a constant-temperature room kept at 25° C. After 6 days, the 200-fold aqueous dilute solutions (corresponding to 500 ppm), prepared from the emulsifiable concentrates of the following present compounds and control compounds prepared according to Formulation example 2, were each sprayed at a rate of 15 ml/pot on a turn table. At the same time, the soil in the pot was treated with 2 ml of each aqueous solution. After 8 days, the degree of damage of the plant by the mite was examined.
-: No damage is observed.
+: Slight damage is observed.
++: The same damage as in the untreated plot is observed.

[2] = test system: common mosquito (Culex pipiens pallens); test: Test Example 1: mortality of larvae and inhibition of emergence of common mosquito; format: in vivo; conditions: for Inhibitory ratio of emergence: 3.5 ppm, counted when all mosquitoes of no treatment group had emerged; for mortality at 3.5 ppm: Culex pipiens, 24 h, last instar larvae, after one day
Description: The emulsifiable concentrates of the following present compounds obtained according to Formulation example 2 were each diluted with water so as to obtain respective aqueous solutions containing 3.5 ppm of said compounds, respectively. One hundred ml of thus diluted aqueous solutions were poured into respective polyethylene cups of 180 ml volume, and 20 of the last instar larvae of common mosquito (Culex pipiens pallens) were liberated thereto. After one day, the dead or alive of the larvae were examined. Thereafter, the feed was added to respective cups and the number of emerged mosquitoes of the respective cups was counted when all the mosquitoes of no treatment group had […] to calculate the inhibitory ratios of the emergence. The mortality and the inhibitory ratio of the emergence are shown according to the following three criteria: mortality: A; 90% or more, […] inhibitory: A; 90% or more, ratio of emergence B; less than 90% to 80% C; less than 80%.

SMILES | Degree of damage [1] | Inhibitory ratio of emergence [2] | mortality at 3.5 ppm [2]
C#CC(C)(CCCc1ccc(F)c(Oc2ccccc2)c1)c1ccc(Cl)cc1 (centres unmarked) [(10), 3-(4-Chlorophenyl)-3-methyl-6-(3-phenoxy-4-fluorophenyl)-1-hexyne] | - | A (90% or more) | > 90%
C#CC(C)(CCCc1cccc(Oc2ccccc2)c1)c1ccc(OC)cc1 (centres unmarked) [(24), 3-(4-Methoxyphenyl)-3-methyl-6-(3-phenoxyphenyl)-1-hexyne] |  | A (90% or more) | 10 to 90%
C#CC(C)(CCCc1ccc(F)c(Oc2ccccc2)n1)c1ccc(OCC)cc1 (centres unmarked) [(20)] | - ~ + | A (90% or more) | > 90%
C#CC(C)(CCCc1ccc(F)c(Oc2ccccc2)c1)c1ccc(OC(F)F)cc1 (centres unmarked) [(6), 3-(4-Difluoromethoxyphenyl)-3-methyl-6-(3-phenoxy-4-fluorophenyl)-1-hexyne] | - | A (90% or more) | > 90%
C#CC(CCCc1cccc(Oc2ccccc2)c1)c1ccc(OCC)cc1 (centres unmarked) [(28), 3-(4-Ethoxyphenyl)-6-(3-phenoxyphenyl)-1-hexyne] |  | A (90% or more) | > 90%
C#CC(CC)(CCCc1ccc(F)c(Oc2ccccc2)c1)c1ccc(OCC)cc1 (centres unmarked) [(29), 3-(4-Ethoxyphenyl)-3-ethyl-6-(3-phenoxy-4-fluorophenyl)-1-hexyne] |  | A (90% or more) | > 90%
C#CC(C)(CCCc1ccc(F)c(Oc2ccc(Cl)cc2)c1)c1ccc(OCC)cc1 (centres unmarked) [(34), 3-(4-Ethoxyphenyl)-3-methyl-6-{3-(4-chlorophenoxy)-4-fluorophenyl}-1-hexyne] |  | A (90% or more) | > 90%
C#CC(C)(CCCc1ccc(F)c(Oc2ccc(F)cc2)c1)c1ccc(OCC)cc1 (centres unmarked) [(38), 3-(4-Ethoxyphenyl)-3-methyl-6-{3-(4-fluorophenoxy)-4-fluorophenyl}-1-hexyne] |  | A (90% or more) | > 90%
C#CC(CCCc1ccc(F)c(Oc2ccccc2)c1)c1ccc(OCC)cc1 (centres unmarked) [(43), 3-(4-Ethoxyphenyl)-6-(3-phenoxy-4-fluorophenyl)-1-hexyne] | - ~ + | A (90% or more) | > 90%
C#CC(C)(CCCc1ccc(F)c(Oc2ccccc2)c1)c1ccc(OC(F)F)c(Cl)c1 (centres unmarked) [(27)] |  | A (90% or more) | 10 to 90%
C#CC(CCCC)(CCCc1ccc(F)c(Oc2ccccc2)c1)c1ccc(OCC)cc1 (centres unmarked) [(42), 3-(4-Ethoxyphenyl)-3-n-butyl-6-(3-phenoxy-4-fluorophenyl)-1-hexyne] |  | A (90% or more) | 10 to 90%
C#CC(C)(CCCc1ccc(F)c(Oc2ccccc2)c1)c1ccc(OCC=C)c(Cl)c1 (centres unmarked) [(40)] |  | A (90% or more) | 10 to 90%
C#CC(C)(CCCc1cccc(Oc2ccccc2)c1)c1ccc2c(c1)OCO2 (centres unmarked) [(14), 3-(3,4-Methylenedioxyphenyl)-3-methyl-6-(3-phenoxyphenyl)-1-hexyne] |  | A (90% or more) | > 90%
C#CC(C)(CCCc1cccc(Oc2ccccc2)c1)c1ccc(OC(F)F)cc1 (centres unmarked) [(17), 3-(4-difluoromethoxyphenyl)-3-methyl-6-(3-phenoxyphenyl)-1-hexyne] | - | A (90% or more) | > 90%
C#CC(C)(CCCc1cccc(Oc2ccccc2)n1)c1ccc(OC)cc1 (centres unmarked) [(44), 3-(4-methoxyphenyl)-3-methyl-6-(6-phenoxypyridin-2-yl)-1-hexyne] |  | A (90% or more) | 10 to 90%
C#CC(C)(CCCc1cccc(Oc2ccccc2)c1)c1ccc(F)cc1 (centres unmarked) [(35), 3-(4-Fluorophenyl)-3-methyl-6-(3-phenoxyphenyl)-1-hexyne] |  | A (90% or more) | > 90%
C#CC(C)(CCCc1cccc(Oc2ccccc2)c1)c1ccc(Cl)cc1 (centres unmarked) [(25), 3-(4-Chlorophenyl)-3-methyl-6-(3-phenoxyphenyl)-1-hexyne] | - | A (90% or more) | > 90%
C#CC(C)(CCCc1ccc(F)c(Oc2ccccc2)c1)c1ccc2c(c1)OCO2 (centres unmarked) [(12), 3-(3,4-Methylenedioxyphenyl)-3-methyl-6-(3-phenoxy-4-fluorophenyl)-1-hexyne] |  | A (90% or more) | > 90%

SMILES | Degree of damage [1] | Inhibitory ratio of emergence [2] | mortality at 3.5 ppm [2]
C#CC(C)(CCCc1ccc(F)c(Oc2ccccc2)c1)c1ccc(Cl)c(Cl)c1 (centres unmarked) [(36), 3-(3,4-Dichlorophenyl)-3-methyl-6-(3-phenoxy-4-fluorophenyl)-1-hexyne] |  | A (90% or more) | 10 to 90%
C#CC(C)(CCCc1cccc(Oc2ccccc2)n1)c1ccc(OCC)cc1 (centres unmarked) [(18), 3-(4-ethoxyphenyl)-3-methyl-6-(6-phenoxypyridin-2-yl)-1-hexyne] | - ~ + | A (90% or more) | > 90%
Cc1cc(Cl)ccc1N=CN(C)C [(E), Chlordimeform, reference compound] | - ~ + |  | 
C#CC(C)(CCCc1cccc(Sc2ccccc2)c1)c1ccc(OCC)cc1 (centres unmarked) [(22), 3-(4-Ethoxyphenyl)-3-methyl-6-(3-phenylthiophenyl)-1-hexyne] |  | A (90% or more) | 10 to 90%
C#CC(C)(CCCc1ccc(F)c(Oc2ccccc2)c1)c1ccc(OCC)c(Cl)c1 (centres unmarked) [(11), 3-(3-Chloro-4-ethoxyphenyl)-3-methyl-6-(3-phenoxy-4-fluorophenyl)-1-hexyne] | - | A (90% or more) | > 90%
C#CC(CC)(CCCc1ccc(F)c(Oc2ccccc2)c1)c1ccc(Cl)cc1 (centres unmarked) [(41), 3-(4-Chlorophenyl)-3-ethyl-6-(3-phenoxy-4-fluorophenyl)-1-hexyne] |  | A (90% or more) | > 90%
C#CC(CC)(CCCc1cccc(Oc2ccccc2)c1)c1ccc(Cl)cc1 (centres unmarked) [(26), 3-(4-Chlorophenyl)-3-ethyl-6-(3-phenoxyphenyl)-1-hexyne] |  | A (90% or more) | > 90%
C#CC(C)(CCCc1ccc(F)c(Cc2ccccc2)c1)c1ccc(OCC)cc1 (centres unmarked) [(30), 3-(4-Ethoxyphenyl)-3-methyl-6-(3-benzyl-4-fluorophenyl)-1-hexyne] |  | A (90% or more) | > 90%
C#CC(C)(CCCc1cccc(Oc2ccccc2)c1)c1ccc(CC)cc1 (centres unmarked) [(23), 3-(4-Ethylphenyl)-3-methyl-6-(3-phenoxyphenyl)-1-hexyne] |  | A (90% or more) | > 90%
C=CC(C)(CCCc1ccc(F)c(Nc2ccccc2)c1)c1ccc(OCC)cc1 (centres unmarked) [(31), 3-(4-Ethoxyphenyl)-3-methyl-6-(3-anilino-4-fluorophenyl)-1-hexene] |  | A (90% or more) | > 90%
C#CC(C)(CCCc1ccc(F)c(Nc2ccccc2)c1)c1ccc(OCC)cc1 (centres unmarked) [(21), 3-(4-Ethoxyphenyl)-3-methyl-6-(3-anilino-4-fluorophenyl)-1-hexyne] |  | A (90% or more) | > 90%
C=CC(C)(CCCc1cccc(Oc2ccccc2)n1)c1ccc(OCC)cc1 (centres unmarked) [(19), 3-(4-Ethoxyphenyl)-3-methyl-6-(6-phenoxypyridin-2-yl)-1-hexene] |  | A (90% or more) | 10 to 90%
C#CC(CC)(CCCc1cccc(Oc2ccccc2)c1)c1ccc(OCC)cc1 (centres unmarked) [(32), 3-(4-Ethoxyphenyl)-3-ethyl-6-(3-phenoxyphenyl)-1-hexyne] |  | A (90% or more) | > 90%
C#CC(C)(CCCc1ccc(F)c(Oc2ccccc2)c1)c1ccc(F)cc1 (centres unmarked) [(9), 3-(4-Fluorophenyl)-3-methyl-6-(3-phenoxy-4-fluorophenyl)-1-hexyne] |  | A (90% or more) | > 90%
C#CC(C)(CCCc1cccc(Oc2ccc(F)cc2)c1)c1ccc(OCC)cc1 (centres unmarked) [(15), 3-(4-Ethoxyphenyl)-3-methyl-6-{3-(4-fluorophenoxy)phenyl}-1-hexyne] |  | A (90% or more) | > 90%
C#CC(C)(CCCc1ccc(F)c(Oc2ccc(C)cc2)c1)c1ccc(OCC)cc1 (centres unmarked) [(33), 3-(4-Ethoxyphenyl)-3-methyl-6-{3-(4-methylphenoxy)-4-fluorophenyl}-1-hexyne] |  | A (90% or more) | > 90%
C#CC(C)(CCCc1ccc(F)c(Oc2ccccc2)c1)c1ccc(OC)cc1 (centres unmarked) [(5), 3-(4-Methoxyphenyl)-3-methyl-6-(3-phenoxy-4-fluorophenyl)-1-hexyne] |  | A (90% or more) | > 90%
